Experimental data published in patent publication US4731381A, “Method of treating a person for sickle cell anemia” (Merck & Co., Inc., priority 1986, dated 1988).
Counter-ions that a name gives are not always drawn.

Key:
sickle hemoglobin (HbS) = sickle hemoglobin (HbS) (Homo sapiens, UniProt P68871+P69905, E7V); assay: solubility assay (Csat assay) of sickle hemoglobin; format: biochemical; conditions: for activation at 3000 µM: 3 mM; for activation at 3000 µM / activation at 5000 µM / activation at 7000 µM / activation at 9000 µM: read-out: % increase in Solubility of HbS; for activation at 7000 µM: 7 mM; for activation at 9000 µM: 9 mM
Description: One major assay for evaluating antisickling agents involves measuring their effect on increasing the concentration at which sickle hemoglobin forms a gel. This is called the solubility or Csat assay.
The solubility assay (Csat assay) measures the ability of a compound to increase solubility of sickle hemoglobin (HbS). […] The higher the ratio, the higher the activity of the compound.
In order to confirm the effectiveness of these compounds in reducing the effect of sickle cell anemia, tests were performed. The materials were tested according to the assay (Csat) developed by Hofrichter et al. (J. Hofrichter, P. D. Ross and W. A. Eaton, Proc. Natl. Acad. Sci., U.S.A. 73, 30-35, 1976). This assay involves deoxygenation of concentrated sickle hemoglobin with dithionite in the presence of different concentrations of the drugs being tested. Samples are then sealed in quartz epr tubes under anaerobic conditions and spun at about 150,000 g for about 21/2 hours at about 35° C. in an ultracentrifuge. This procedure pellets the polymerized HbS (sickle hemoglobin) to the bottom of the tubes and the supernatant (soluble HbS) is measured in the laboratory as the cyanmethemoglobulin derivative. […] Activity is reported as a ratio of the HbS solubility with the particular drug to HbS solubility with no drug, i.e. control. The higher the ratio the greater degree of activity of the drug. The numbers in parenthesis are the percent increase in solubility of HbS; again, the higher the number, the greater the activity. The results of representative compounds from the Examples are shown in Table I as typical of the compounds of the invention.

HbS = assay: chromatographic separation, covalent binding between HbS and the agent
erythrocyte membranes = assay: tests of transport across erythrocyte membranes; format: in vitro ADME

SMILES | activation at 3000 µM (sickle hemoglobin (HbS)) | activation at 5000 µM (sickle hemoglobin (HbS); 5 mM) | activation at 7000 µM (sickle hemoglobin (HbS)) | activation at 9000 µM (sickle hemoglobin (HbS)) | solubility ratio (Csat assay) compared with other antisickling agents, in words (sickle hemoglobin (HbS); 5 mM, sodium salt) | covalent binding between HbS and the therapeutic agent, in words (HbS) | ability to cross the red blood cell membrane, in words (erythrocyte membranes)
C=C(CC)C(=O)c1ccc(OC(C)(C)C(=O)O)c(Cl)c1Cl [Example 8, 2-[2,3-dichloro-4-(2-methylenebutyryl)phenoxy]-2-methylpropionic acid] | 11% | 21% | 41% | 53% | – | – | –
C=C(CC)C(=O)c1ccc(OC2(C(=O)O)CCC2)c(Cl)c1Cl [Example 6, 1-[2,3-dichloro-4-(2-methylenebutyryl)phenoxy]cyclobutane-1-carboxylic acid] | 19% | 30% | 34% | 48% | – | – | –
C=C(CC)C(=O)c1ccc(OCCC(=O)O)c(Cl)c1Cl [Example 1, 3-[2,3-dichloro-4-(2-methylenebutyryl)phenoxy]propionic acid] | 26% | 33% | 43% | 69% | – | – | –
C=C(CC)C(=O)c1ccc(OCCCC(=O)O)c(Cl)c1Cl [sodium salt of 4-[2,3-dichloro-4-(2-methylenebutyryl)phenoxy]butyric acid] | – | – | – | – | higher solubility ratio than other antisickling agents, such as, dichlorobenzyloxyacetic and p-bromobenzyloxyacetic acids | tight covalent binding between the HbS and the therapeutic agent had occurred | cross the red blood cell membrane and react with hemoglobin
C=C(CC)C(=O)c1ccc(OCCCC(=O)O)c(Cl)c1Cl [Example 2, 4-[2,3-dichloro-4-(2-methylenebutyryl)phenoxy]butyric acid] | 22% | 27% | 37% | 46% | – | – | –
C=C(CC)C(=O)c1ccc(OCCCCC(=O)O)c(Cl)c1Cl [Example 4, 5-[2,3-dichloro-4-(2-methylenebutyryl)phenoxy]valeric acid] | 21% | 34% | 52% | 80% | – | – | –
C=C(CC)C(=O)c1ccc(OCCCCCC(=O)O)c(Cl)c1Cl [Example 5, 6-[2,3-dichloro-4-(2-methylenebutyryl)phenoxy]hexanoic acid] | 13% | 18% | 26% | 35% | – | – | –
C=C(CCC)C(=O)c1ccc(OC2(C(=O)O)CCC2)c(Cl)c1Cl [Example 7, 1-[2,3-dichloro-4-(2-methylenevaleryl)phenoxy]cyclobutane-1-carboxylic acid] | 14% | 30% | 26% | 39% | – | – | –
C=C(CCC)C(=O)c1ccc(OCCCC(=O)O)c(Cl)c1Cl [Example 3, 4-[2,3-dichloro-4-(2-methylenevaleryl)phenoxy]butyric acid] | 18% | 37% | 46% | 51% | – | – | –
